# Laboratory results reported in article PMC3441526, “KCN1, a Novel Synthetic Sulfonamide Anticancer Agent: In Vitro and In Vivo Anti-Pancreatic Cancer Activities and Preclinical Pharmacology” (PLoS ONE, 2012).
# Tests used:
# BxPC3 cells = assay: Cell cycle measurement by flow cytometry; type: cell-based, human; details: for cell cycle distribution, G1 / cell cycle distribution, G2/M / cell cycle distribution, S: 24 h
# Method: (§1) To determine the effect of KCN1 on the cell cycle, cells (2–3×10^5) were exposed to the test compounds (0, 5, 12.5 or 50 µM) and incubated for 24 h prior to analysis. Cells were trypsinized, washed with PBS, and fixed in 1.5 mL of 95% ethanol at 4°C overnight, followed by incubation with RNAse and staining with propidium iodide (Sigma). The DNA content was determined by flow cytometry, [47].
# HPAC cells = assay: Cell cycle measurement by flow cytometry; type: cell-based, human; details: 24 h
# Method: as §1
# Mia Paca-2 cells = assay: Cell cycle measurement by flow cytometry; type: cell-based, human; details: for cell cycle distribution, G1 / cell cycle distribution, G2/M / cell cycle distribution, S: 24 h
# Method: as §1
# Panc-1 cells = assay: Cell cycle measurement by flow cytometry; type: cell-based, human; details: for cell cycle distribution, G1 / cell cycle distribution, G2/M / cell cycle distribution, S: 24 h
# Method: as §1
# [1] = system: Mia Paca-2 xenograft tumors; assay: Subcutaneous xenograft tumor model; type: in vivo, nude mice (nu/nu); details: for decrease of tumor growth: 5 days/wk for 6 weeks
# Method: (§2) The animal procedures were performed under approval by the Institutional Animal Use and Care Committee of Texas Tech University Health Sciences Center (IACUC # 10031, PHS Assurance # A 3056-01, USDA Registration # 74-R-0050, REF # 039436). Female athymic pathogen-free nude mice (nu/nu, 4–6 weeks) were purchased from Charles River Laboratories International Inc. (Wilmington, MA). To establish Panc-1 and Mia Paca-2 human pancreatic cancer xenograft tumors, cultured Panc-1 (5×10^6) and Mia Paca-2 (1×10^7) cells were harvested from monolayer cultures, washed twice with serum-free medium, re-suspended and injected subcutaneously (total volume 0.2 mL) into the left inguinal area of the mice. All animals were monitored for activity, physical condition, body weight, and tumor growth. Tumor size was determined every other day by caliper measurement of two perpendicular diameters of the implant. Tumor volume (in mm^3) was calculated by the formula, ½ (a × b ^2) where “a” is the long diameter and “b” is the short diameter, [47].
# (§3) The animals bearing human cancer xenografts were randomly divided into various treatment groups and a control group (7–10 mice/group). The untreated control group received the vehicle only. For the Panc-1 and Mia Paca-2 xenograft models, KCN1 was dissolved in a 1∶1 solution of Cremophor EL (Sigma, St. Louis, MO): ethanol (200 Proof) by heating to 80–90°C in a water bath and vortexing, then diluted with an equal volume of phosphate-buffered saline, and was administered by intraperitoneal injection at doses of 30 and 60 mg/kg/d, 5d/wk for several weeks. Treatment was initiated once tumor volume reached ∼100 mm^3. The dosage regimen was decided based upon IC50 values obtained from in-vitro studies and adjustments for body surface and weight of the treated animal.
# Panc-1 xenograft tumors = assay: Subcutaneous xenograft tumor model; type: in vivo, nude mice (nu/nu); details: for tumor growth inhibition: 5 days/week, Day 21
# Method: as §2, §3
# [2] = Plasma protein binding assay (ultrafiltration); type: in vitro ADME; details: mouse plasma
# Method: The extent to which KCN1 was bound by mouse plasma proteins was assessed by a previously described method involving the use of a micro-ultrafiltration system. Samples of mouse plasma containing KCN1 at concentrations of 1.0 and 10 µM were maintained at 37°C for 1 h. Controls were prepared using methanol in place of plasma. From each of these preparations, a portion was taken and placed in a sample reservoir of an Amicon Centrifree® ultrafiltration system (Millipore Co., Bedford, MA). The filter systems were centrifuged at 2,000 × g until the reservoirs were dry. From each sample, triplicate portions were taken for analysis by HPLC. The amounts present in the filtrate were designated as “free drug” (F). The concentrations of the unfiltered solutions were also determined by triplicate analyses. This amount represented the “total drug” concentration (T). The amount bound to the filter (X) was also considered. The percentage of KCN1 bound to plasma proteins was calculated by the following formula: % bound = [(T-F-X)/T]×100.
# [3] = Pharmacokinetic study, faecal recovery and late detection (strain not stated); type: in vivo, mice; details: for initial dose of parental compound recovered in feces: mice
# Method: Female CD-1 and nude mice were administered 35 mg/kg body weight of KCN1 as either a single intravenous injection via a tail vein or via an intraperitoneal injection. At selected time points after dosing, groups of three mice/time point were subjected to a retro-orbital bleed. The blood was collected into heparinized tubes, and plasma was separated by centrifugation. Tissues (brain, skeletal muscle, kidneys, liver, spleen, and heart) were collected by necropsy. Urine and feces were collected on ice for 24 h from mice housed in metabolic cages (n = 3/study). The collection containers and cages were washed twice with 0.9% saline solution, and each urine collection and each wash was analyzed separately, then values were added together for each mouse to determine the total KCN1 present in urine during the collection period. Pharmacokinetic values were derived using Phoenix WinNonlin Version 6.0 (Mountain View, CA).
smiles,measurement,setting,value
"COc1ccc(S(=O)(=O)N(Cc2ccc3c(c2)C=CC(C)(C)O3)c2ccccc2)cc1OC [KCN1, 3,4-dimethoxy-N-[(2,2-dimethyl-2H-chromen-6-yl)methyl]-N-phenylbenzenesulfonamide]","cell cycle distribution, G1","BxPC3 cells; BXPC3, 5 µM",52.9±4.1
same,"cell cycle distribution, G2/M","BxPC3 cells; BXPC3, 5 µM",26.4±1.3
same,"cell cycle distribution, S","BxPC3 cells; BXPC3, 5 µM",20.8±3.8
same,"cell cycle distribution, G1","BxPC3 cells; BXPC3, 12.5 µM",65.1±3.5
same,"cell cycle distribution, G2/M","BxPC3 cells; BXPC3, 12.5 µM",17.4±1.9
same,"cell cycle distribution, S","BxPC3 cells; BXPC3, 12.5 µM",17.5±2.1
same,"cell cycle distribution, G1","BxPC3 cells; BXPC3, 50 µM",70.8±2.0
same,"cell cycle distribution, G2/M","BxPC3 cells; BXPC3, 50 µM",15.5±1.7
same,"cell cycle distribution, S","BxPC3 cells; BXPC3, 50 µM",13.7±0.9
same,concentration at which G1 arrest begins,"BxPC3 cells; BxPC3, 24 h",5 µM
same,"cell cycle distribution, G1",HPAC cells; 5 µM,62.1±4.9
same,"cell cycle distribution, G2/M",HPAC cells; 5 µM,11.8±1.2
same,"cell cycle distribution, S",HPAC cells; 5 µM,26.1±3.8
same,"cell cycle distribution, G1",HPAC cells; 12.5 µM,66.8±1.6
same,"cell cycle distribution, G2/M",HPAC cells; 12.5 µM,10.9±1.3
same,"cell cycle distribution, S",HPAC cells; 12.5 µM,22.4±1.6
same,"cell cycle distribution, G1",HPAC cells; 50 µM,68.8±2.7
same,"cell cycle distribution, G2/M",HPAC cells; 50 µM,11.5±1.4
same,"cell cycle distribution, S",HPAC cells; 50 µM,19.7±1.4
same,concentration at which G1 arrest begins,HPAC cells,5 µM
same,"cell cycle distribution, G1","Mia Paca-2 cells; Mia Paca-2, 5 µM",50.4±3.6
same,"cell cycle distribution, G2/M","Mia Paca-2 cells; Mia Paca-2, 5 µM",31.6±1.9
same,"cell cycle distribution, S","Mia Paca-2 cells; Mia Paca-2, 5 µM",18.0±0.9
same,"cell cycle distribution, G1","Mia Paca-2 cells; Mia Paca-2, 12.5 µM",55.2±1.2
same,"cell cycle distribution, G2/M","Mia Paca-2 cells; Mia Paca-2, 12.5 µM",24.6±0.9
same,"cell cycle distribution, S","Mia Paca-2 cells; Mia Paca-2, 12.5 µM",20.2±1.7
same,"cell cycle distribution, G1","Mia Paca-2 cells; Mia Paca-2, 50 µM",58.9±3.9
same,"cell cycle distribution, G2/M","Mia Paca-2 cells; Mia Paca-2, 50 µM",20.3±1.1
same,"cell cycle distribution, S","Mia Paca-2 cells; Mia Paca-2, 50 µM",20.8±1.5
same,concentration at which G1 arrest begins,"Mia Paca-2 cells; Mia Paca-2, 24 h",5 µM
same,"cell cycle distribution, G1","Panc-1 cells; Panc-1, 5 µM",40.3±2.2
same,"cell cycle distribution, G2/M","Panc-1 cells; Panc-1, 5 µM",30.9±0.8
same,"cell cycle distribution, S","Panc-1 cells; Panc-1, 5 µM",28.8±3.2
same,"cell cycle distribution, G1","Panc-1 cells; Panc-1, 12.5 µM",49.8±0.8
same,"cell cycle distribution, G2/M","Panc-1 cells; Panc-1, 12.5 µM",28.8±1.6
same,"cell cycle distribution, S","Panc-1 cells; Panc-1, 12.5 µM",21.4±0.9
same,"cell cycle distribution, G1","Panc-1 cells; Panc-1, 50 µM",53.3±2.3
same,"cell cycle distribution, G2/M","Panc-1 cells; Panc-1, 50 µM",29.1±1.4
same,"cell cycle distribution, S","Panc-1 cells; Panc-1, 50 µM",17.6±0.9
same,concentration at which G1 arrest begins,"Panc-1 cells; Panc-1, 24 h",12.5 µM
same,decrease of tumor growth,[1]; 30 mg/kg i.p.,about 43%
same,decrease of tumor growth,[1]; 60 mg/kg i.p.,~57%
same,body weight versus controls,[1]; 30 or 60 mg/kg i.p.,no significant differences in body weights
same,tumor growth inhibition,Panc-1 xenograft tumors; 30 mg/kg i.p.,approximately 46%
same,tumor growth inhibition,Panc-1 xenograft tumors; 60 mg/kg i.p.,61%
same,body weight versus controls,Panc-1 xenograft tumors; 30 or 60 mg/kg i.p.,no significant differences in body weights
same,binding to plasma proteins,[2]; 1.0 µM,90.96%
same,binding to plasma proteins,[2]; 10.0 µM,99.32%
same,time still detectable at a low level,[3]; after intraperitoneal dosing (data not shown),at least five days
same,initial dose of parental compound recovered in feces,[3]; I.P. injection (data not shown),Approximately 1%
same,initial dose of parental compound recovered in feces,[3]; I.V. injection (data not shown),less than 1%
